{
  "source": "patent US9433687B2",
  "about": "“Anti-Notch3 antibodies and antibody-drug conjugates” (Pfizer Inc., priority 2012, dated 2016)",
  "key": {"[1]": {"tested_on": "OVCAR3 ovarian xenografts", "assay": "OVCAR3 ovarian xenograft model", "conditions": "dose 60 mg/kg (30 mg/kg twice a day) intraperitoneally Q7d×4"}, "[2]": {"assay": "OVCAR3 ovarian xenograft model", "conditions": "female, SCID Hairless Outbred (SHO), mouse, in vivo, ip"}},
  "data": [
    {"smiles": "CC(=O)O[C@H]1C(=O)[C@@]2(C)[C@H]([C@H](OC(=O)c3ccccc3)[C@]3(O)C[C@H](OC(=O)[C@H](O)[C@@H](NC(=O)c4ccccc4)c4ccccc4)C(C)=C1C3(C)C)[C@]1(OC(C)=O)CO[C@@H]1C[C@@H]2O", "note": "[paclitaxel, reference compound]", "values": [
      {"measurement": "tumor volume", "setting": "[1]; DAY 0", "result": 169, "unit": "mm3"},
      {"measurement": "tumor volume", "setting": "[1]; DAY 6", "result": 139, "unit": "mm3"},
      {"measurement": "tumor volume", "setting": "[1]; DAY 11", "result": 85, "unit": "mm3"},
      {"measurement": "tumor volume", "setting": "[1]; DAY 14", "result": 84, "unit": "mm3"},
      {"measurement": "tumor volume", "setting": "[1]; DAY 18", "result": 61, "unit": "mm3"},
      {"measurement": "tumor volume", "setting": "[1]; DAY 21", "result": 50, "unit": "mm3"},
      {"measurement": "tumor volume", "setting": "[1]; DAY 25", "result": 41, "unit": "mm3"},
      {"measurement": "tumor volume", "setting": "[1]; DAY 28", "result": 44, "unit": "mm3"},
      {"measurement": "tumor volume", "setting": "[1]; DAY 31", "result": 43, "unit": "mm3"},
      {"measurement": "tumor volume", "setting": "[1]; DAY 34", "result": 50, "unit": "mm3"},
      {"measurement": "tumor volume", "setting": "[1]; DAY 38", "result": 55, "unit": "mm3"},
      {"measurement": "tumor volume", "setting": "[1]; DAY 41", "result": 38, "unit": "mm3"},
      {"measurement": "tumor volume", "setting": "[1]; DAY 45", "result": 39, "unit": "mm3"},
      {"measurement": "tumor volume", "setting": "[1]; DAY 49", "result": 40, "unit": "mm3"},
      {"measurement": "tumor volume", "setting": "[1]; DAY 53", "result": 40, "unit": "mm3"},
      {"measurement": "tumor volume", "setting": "[1]; DAY 56", "result": 39, "unit": "mm3"},
      {"measurement": "tumor volume", "setting": "[1]; DAY 59", "result": 37, "unit": "mm3"},
      {"measurement": "tumor volume", "setting": "[1]; DAY 63", "result": 42, "unit": "mm3"},
      {"measurement": "tumor volume", "setting": "[1]; DAY 67", "result": 33, "unit": "mm3"},
      {"measurement": "tumor volume", "setting": "[1]; DAY 70", "result": 28, "unit": "mm3"},
      {"measurement": "tumor volume", "setting": "[1]; DAY 74", "result": 32, "unit": "mm3"},
      {"measurement": "tumor volume", "setting": "[1]; DAY 77", "result": 31, "unit": "mm3"},
      {"measurement": "tumor volume", "setting": "[1]; DAY 80", "result": 31, "unit": "mm3"},
      {"measurement": "tumor volume", "setting": "[1]; DAY 83", "result": 38, "unit": "mm3"},
      {"measurement": "tumor volume", "setting": "[1]; DAY 87", "result": 28, "unit": "mm3"},
      {"measurement": "tumor volume", "setting": "[1]; DAY 90", "result": 32, "unit": "mm3"},
      {"measurement": "tumor volume", "setting": "[1]; DAY 94", "result": 30, "unit": "mm3"},
      {"measurement": "tumor volume", "setting": "[1]; DAY 97", "result": 31, "unit": "mm3"},
      {"measurement": "tumor volume", "setting": "[1]; DAY 102", "result": 26, "unit": "mm3"},
      {"measurement": "tumor volume", "setting": "[1]; DAY 105", "result": 31, "unit": "mm3"},
      {"measurement": "tumor volume", "setting": "[1]; DAY 108", "result": 28, "unit": "mm3"},
      {"measurement": "tumor volume", "setting": "[1]; DAY 111", "result": 26, "unit": "mm3"},
      {"measurement": "tumor volume", "setting": "[1]; DAY 115", "result": 31, "unit": "mm3"},
      {"measurement": "tumor volume", "setting": "[1]; DAY 118", "result": 26, "unit": "mm3"},
      {"measurement": "tumor volume", "setting": "[1]; DAY 122", "result": 31, "unit": "mm3"},
      {"measurement": "MTD", "setting": "[2]", "result": 60, "unit": "mg/kg"}
    ]}
  ]
}
